Source: patent US4167568A, “8-Azapurin-6-one derivatives” (May & Baker Limited, priority 1976, dated 1979)

Legend:
[1] = tested on: passive cutaneous anaphylactic reaction; experiment: Passive cutaneous anaphylactic reaction test in rats (intravenous); type: in vivo; conditions: relative to reference compound RCA (= 1)
Description: A.1. Passive cutaneous anaphylactic reaction test in rats (intravenous)

[2] = Acute oral toxicity in mice; conditions: mouse, in vivo, observed 3 days
Description: T.1. Acute oral toxicity in mice
(§1) Mice were each treated orally with one of the compounds of formula IV, and they were observed during the next 3 days. The LD50 figures obtained (doses lethal to 50% of mice tested) are shown in Table II, expressed in mg/kg animal body weight.

beagle dogs = experiment: Emetic activity in dogs; type: in vivo; conditions: four beagle dogs, oral gelatine capsules, observed at least 2.5 hours
Description: The emetic activity in dogs of test compound A was compared with that of the reference compound RCA.
Four beagle dogs, each of approximately 12 kg body weight, were starved overnight and then were given orally gelatine capsules containing either test compound A or RCA.
The same four animals were used to test both compounds.

[3] = tested on: passive cutaneous anaphylactic reaction; experiment: Passive cutaneous anaphylactic reaction test in rats (oral); type: in vivo; conditions: for oral activity relative to reference compounds RCB and RCC: times as active as RCB and RCC
Description: A.2. Passive cutaneous anaphylactic reaction test in rats (oral)

[4] = Acute intravenous toxicity in mice; conditions: mouse, in vivo, triethanolamine salt, aqueous solution, observed 7 days
Procedure: T.2. Acute intravenous toxicity in mice
as §1, with “intravenously” for “orally”, “with an aqueous solution of the triethanolamine salt of” for “with”, “7” for “3”, “shown below” for “shown”, “III,” for “II,”
The aqueous solutions used were prepared as follows:- A mixture of the test compound and water was treated gradually with triethanolamine until complete solution occurred. The solution was then diluted with water to a concentration of either 1% w/v or 2% w/v. Various volumes of these solutions were then administered to the mice.

SMILES | Relative Activity [1] | further results
CCCOc1ccc(NC(N)=O)cc1-c1nc2[nH]nnc2c(=O)[nH]1 [Compound S, 2-(2-propoxy-5-ureidophenyl)-8-azapurin-6-one] | 5 | 
CCCNC(=S)Nc1ccc(OCCC)c(-c2nc3[nH]nnc3c(=O)[nH]2)c1 [Compound R, 2-[2-propoxy-5-(3-propyl-2-thioureido)phenyl]-8-azapurin-6-one] | 0.2 | LD50 at 72 h [2]: > 1000 mg/kg
CCCOc1ccccc1-c1nc2nn[nH]c2c(=O)[nH]1 [RCA, 2-(2-propoxyphenyl)-8-azapurin-6-one, reference compound] | 1 | vomiting (emetic activity) (beagle dogs; 100 mg/kg): caused vomiting in all four dogs
CCCOc1ccc(S(=O)(=O)CCC)cc1-c1nc2[nH]nnc2c(=O)[nH]1 [RCC, 2-(2-propoxy-5-propylsulphonylphenyl)-8-azapurin-6-one, reference compound] |  | oral activity of RCB and RCC compared with each other [3]: approximately equiactive orally
CCCOc1ccc(S(=O)(=O)N(C)C(C)C)cc1-c1nc2[nH]nnc2c(=O)[nH]1 [RCB, 2-[2-propoxy-5-(N-methyl-N-isopropylsulphamoyl)-phenyl]-8-azapurin-6-one, reference compound] |  | oral activity of RCB and RCC compared with each other [3]: approximately equiactive orally
CCCOc1ccc(N=NC(C(C)=O)C(C)=O)cc1-c1nc2[nH]nnc2c(=O)[nH]1 [J, 2-[5-(2,4-dioxopent-3-ylazo)-2-propoxyphenyl]-8-azapurin-6-one] | 10 | LD50 at 72 h [2]: > 1000 mg/kg
CCCOc1ccc(NC=C(C(=O)OCC)C(=O)OCC)cc1-c1nc2[nH]nnc2c(=O)[nH]1 [Compound A, 2-[5-{2,2-bis(ethoxycarbonyl)vinylamino}-2-propoxyphenyl]-8-azapurin-6-one] | 5 | vomiting (emetic activity) (beagle dogs; 200 mg/kg): caused vomiting in none of the four dogs; oral activity relative to reference compounds RCB and RCC [3]: over 5 times
CCCOc1ccc(NC(=S)NC)cc1-c1nc2[nH]nnc2c(=O)[nH]1 [Compound Q, 2-[5-(3-methyl-2-thioureido)-2-propoxyphenyl]-8-azapurin-6-one] | 10 | 
CCCOc1ccc(NC=C(C#N)C(=O)OCC)cc1-c1nc2[nH]nnc2c(=O)[nH]1 [C, 2-[5-(2-cyano-2-ethoxycarbonylvinylamino)-2-propoxyphenyl]-8-azapurin-6-one] | 10 | oral activity relative to reference compounds RCB and RCC [3]: over 2.5 times; LD50 at 168 h ([4]; test solution 2% w/v): 290 mg/kg
CCCOc1ccc(-c2nnn[nH]2)cc1-c1nc2[nH]nnc2c(=O)[nH]1 [Compound T, 2-[2-propoxy-5-(tetrazol-5-yl)phenyl]-8-azapurin-6-one] | 2 | 
CCCNC(=O)Nc1ccc(OCCC)c(-c2nc3[nH]nnc3c(=O)[nH]2)c1 [Compound P, 2-[2-propoxy-5-(3-propylureido)phenyl]-8-azapurin-6-one] | 2 | 
CCCOc1ccc(NC=C(C(C)=O)C(=O)OCC)cc1-c1nc2[nH]nnc2c(=O)[nH]1 [D, 2-[5-(2-acetyl-2-ethoxycarbonylvinylamino)-2-propoxyphenyl]-8-azapurin-6-one] | 10 | LD50 at 168 h ([4]; test solution 2% w/v): 270 mg/kg
CCCOc1ccc(C(=O)NC(C)(C)C)cc1-c1nc2[nH]nnc2c(=O)[nH]1 [Compound N, 2-(5-N-t-butylcarbamoyl-2-propoxyphenyl)-8-azapurin-6-one] | 50 | LD50 at 72 h [2]: > 1000 mg/kg
CCCOc1ccc(C#N)cc1-c1nc2[nH]nnc2c(=O)[nH]1 [Compound L, 2-(5-cyano-2-propoxyphenyl)-8-azapurin-6-one] | 1 | 
CCCOc1ccc(NC2=C(C(=O)OCC)CCC2)cc1-c1nc2[nH]nnc2c(=O)[nH]1 [Compound U, 2-[5-(2-ethoxycarbonylcyclopent-1-enylamino)-2-propoxyphenyl]-8-azapurin-6-one] | 5 | LD50 at 168 h ([4]; test solution 2% w/v): 220 mg/kg
CCCOc1ccc(N/C(=C\C(=O)OC)C(=O)OC)cc1-c1nc2[nH]nnc2c(=O)[nH]1 [Compound H, (Z)-2-[5-{1,2-bis(methoxycarbonyl)vinylamino}-2-propoxyphenyl]-8-azapurin-6-one] | 15 | LD50 at 168 h ([4]; test solution 2% w/v): 410 mg/kg
CCCOc1ccc(N=NC(C(=O)OCC)C(=O)OCC)cc1-c1nc2[nH]nnc2c(=O)[nH]1 [K, 2-[5-{bis(ethoxycarbonyl)methylazo}-2-propoxyphenyl]-8-azapurin-6-one] | 2.5 | LD50 at 168 h ([4]; test solution 2% w/v): 255 mg/kg
COc1ccc(NC(C)=CC(C)=O)cc1-c1nc2[nH]nnc2c(=O)[nH]1 [Compound I, 2-[5-(1-acetylprop-1-en-2-ylamino)-2-methoxyphenyl]-8-azapurin-6-one] | 5 | LD50 at 168 h ([4]; test solution 1% w/v): 470 mg/kg
CCCOc1ccc(NC=C(C(=O)OC)C(=O)OC)cc1-c1nc2[nH]nnc2c(=O)[nH]1 [Compound G, 2-[5-{2,2-bis(methoxycarbonyl)vinylamino}-2-propoxyphenyl]-8-azapurin-6-one] | 50 | LD50 at 168 h ([4]; test solution 2% w/v): 280 mg/kg
CCCOc1ccc(C(=O)N(C)C(C)C)cc1-c1nc2[nH]nnc2c(=O)[nH]1 [W, 2-(5-N-methyl-N-isopropylcarbamoyl-2-propoxyphenyl)-8-azapurin-6-one] | 5 | 
CCOC(=O)C(=CNc1ccc(OC)c(-c2nc3[nH]nnc3c(=O)[nH]2)c1)C(=O)OCC [Compound E, 2-[5-{2,2-bis(ethoxycarbonyl)vinylamino}-2-methoxyphenyl]-8-azapurin-6-one] | 5 | LD50 at 168 h ([4]; test solution 1% w/v): 320 mg/kg; LD50 at 72 h [2]: > 1000 mg/kg
CCCOc1ccc(C(N)=O)cc1-c1nc2[nH]nnc2c(=O)[nH]1 [Compound M, 2-(5-carbamoyl-2-propoxyphenyl)-8-azapurin-6-one] | 10 | 
CCCOc1ccc(NC(=O)NC(C)C)cc1-c1nc2[nH]nnc2c(=O)[nH]1 [Compound O, 2-[2-propoxy-5-(3-isopropylureido)phenyl]-8-azapurin-6-one] | 30 | LD50 at 72 h [2]: > 1000 mg/kg
CCCOc1ccc(C(=O)N(CC)CC)cc1-c1nc2[nH]nnc2c(=O)[nH]1 [Compound V, 2-(5-N,N-diethylcarbamoyl-2-propoxyphenyl)-8-azapurin-6-one] | 3 | 
COc1ccc(NC=C(C(C)=O)C(C)=O)cc1-c1nc2[nH]nnc2c(=O)[nH]1 [F, 2-[5-(2,2-diacetylvinylamino)-2-methoxyphenyl]-8-azapurin-6-one] | 5 | 
CCCOc1ccc(NC=C(C(C)=O)C(C)=O)cc1-c1nc2[nH]nnc2c(=O)[nH]1 [Compound B, 2-[5-(2,2-diacetylvinylamino)-2-propoxyphenyl]-8-azapurin-6-one] | 50 | LD50 at 168 h ([4]; test solution 1% w/v): 350 mg/kg
